Results published in ChEMBL document CHEMBL3399993, “Design and synthesis of novel quinoline-aminopiperidine hybrid analogues as Mycobacterium tuberculosis DNA gyraseB inhibitors” (Bioorg Med Chem, 2015).
In brackets after ≈: the same amount, converted by molar mass. Activity calls are given as the source filed them. No cut-off for these calls is given here.

Experiments:
[1] = organism: Danio rerio; test: Cardiotoxic inhibition of ERG channel in Zebrafish assessed as change in atrio ventricular beats ratio at 30 uM after 4 hrs; assay type: organism-based, Cardiac ventricle; settings: in vivo
[2] = organism: Danio rerio; test: Cardiotoxic inhibition of ERG channel in Zebrafish assessed as change in heart rate of ventricles at 30 uM after 4 hrs; assay type: organism-based; settings: in vivo
[3] = organism: Danio rerio; test: Cardiotoxic inhibition of ERG channel in Zebrafish assessed as change in heart rate of atria at 30 uM after 4 hrs; assay type: organism-based; settings: in vivo
[4] = organism: Danio rerio; test: Cardiotoxic inhibition of ERG channel in Zebrafish assessed as change in heart rate of atria at 1 uM to 10 uM after 4 hrs; assay type: organism-based; settings: in vivo
[5] = organism: Danio rerio; test: Cardiotoxic inhibition of ERG channel in Zebrafish assessed as change in atrio ventricular beats ratio at 1 to 10 uM after 4 hrs; assay type: organism-based, Cardiac ventricle; settings: in vivo
[6] = organism: Danio rerio; test: Cardiotoxic inhibition of ERG channel in Zebrafish assessed as change in heart rate of ventricles at 1 uM to 10 uM after 4 hrs; assay type: organism-based; settings: in vivo
[7] = Cytotoxicity against mouse RAW264.7 cells assessed as inhibition of cell growth at 50 uM after 48 hrs by MTT assay; assay type: cell-based; settings: read-out: GI
[8] = target: DNA gyrase subunit B (Mycobacterium smegmatis, UniProt P0C559); test: Inhibition of Mycobacterium smegmatis GyrB ATPase activity expressed in Escherichia coli BL21 (DE3) pLysS cells after 100 mins by inorganic phosphate release detection based malachite green reagent assay; set-up: species or system Mycolicibacterium smegmatis
[9] = target: DNA gyrase subunit A/DNA gyrase subunit B (Mycobacterium tuberculosis (strain ATCC 25618 / H37Rv), UniProt P9WG45+P9WG47); test: Inhibition of Mycobacterium tuberculosis GyrA/GyrB using relaxed pBR322 substrate incubated for 30 mins by ethidium bromide staining and electrophoresis based DNA supercoiling assay
[10] = test system: Mycobacterium tuberculosis; test: Antimycobacterial activity against Mycobacterium tuberculosis H37Rv ATCC 27294 incubated for 7 days by microplate alamar blue assay method; assay type: functional; settings: H37Rv ATCC 27294, 168 h
[11] = organism: Danio rerio; test: Cardiotoxic inhibition of ERG channel in Zebrafish assessed as change in atrio ventricular beats ratio at 1 uM to 30 uM after 4 hrs; assay type: organism-based, Cardiac ventricle; settings: in vivo
[12] = organism: Danio rerio; test: Cardiotoxic inhibition of ERG channel in Zebrafish assessed as change in heart rate of ventricles at 1 uM to 30 uM after 4 hrs; assay type: organism-based; settings: in vivo
[13] = target: DNA gyrase subunit B (Staphylococcus aureus) (UniProt P0A0K8); test: Inhibition of Staphylococcus aureus GyrB at 100 uM
[14] = organism: Danio rerio; test: Cardiotoxic inhibition of ERG channel in Zebrafish assessed as change in heart rate of atria at 1 uM to 30 uM after 4 hrs; assay type: organism-based; settings: in vivo
[15] = target: DNA gyrase subunit B (Mycobacterium smegmatis) (UniProt P0C559); test: Binding affinity to Mycobacterium smegmatis GyrB assessed as increase in protein-compound complex stability by measuring right side positive shift of melting temperature by SYPRO-orange dye based differential scanning fluorimetry; settings: Mycolicibacterium smegmatis
[16] = target: DNA gyrase subunit B (Escherichia coli) (UniProt P0AES6); test: Inhibition of Escherichia coli GyrB at 100 uM
[17] = organism: Danio rerio; test: Cardiotoxic inhibition of ERG channel in Zebrafish assessed as change in heart rate of atria at 20 uM after 4 hrs; assay type: organism-based; settings: in vivo
[18] = organism: Danio rerio; test: Cardiotoxic inhibition of ERG channel in Zebrafish assessed as change in atrio ventricular beats ratio at 20 uM after 4 hrs; assay type: organism-based, Cardiac ventricle; settings: in vivo
[19] = organism: Danio rerio; test: Cardiotoxic inhibition of ERG channel in Zebrafish assessed as change in heart rate of ventricles at 20 uM after 4 hrs; assay type: organism-based; settings: in vivo

Chain of DNA gyrase subunit B (P0C559 whole entry): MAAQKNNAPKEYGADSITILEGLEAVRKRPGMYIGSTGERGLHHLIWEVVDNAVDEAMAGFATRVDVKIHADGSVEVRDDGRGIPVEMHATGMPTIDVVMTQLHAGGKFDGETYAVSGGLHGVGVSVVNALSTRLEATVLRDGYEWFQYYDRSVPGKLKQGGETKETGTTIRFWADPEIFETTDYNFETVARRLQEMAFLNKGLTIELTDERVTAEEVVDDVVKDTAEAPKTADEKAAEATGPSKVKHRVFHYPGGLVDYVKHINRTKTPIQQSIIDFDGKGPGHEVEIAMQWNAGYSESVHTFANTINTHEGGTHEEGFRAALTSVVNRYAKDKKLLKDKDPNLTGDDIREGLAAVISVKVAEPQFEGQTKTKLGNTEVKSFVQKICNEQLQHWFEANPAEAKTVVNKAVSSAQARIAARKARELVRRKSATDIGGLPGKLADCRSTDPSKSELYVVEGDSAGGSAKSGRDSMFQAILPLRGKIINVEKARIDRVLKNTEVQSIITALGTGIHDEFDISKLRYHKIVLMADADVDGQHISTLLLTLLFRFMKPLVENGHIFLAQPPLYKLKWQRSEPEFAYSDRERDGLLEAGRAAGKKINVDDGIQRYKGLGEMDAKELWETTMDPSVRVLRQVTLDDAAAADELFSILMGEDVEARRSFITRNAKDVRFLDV
Chain of DNA gyrase subunit A/DNA gyrase subunit B (P9WG45 whole entry): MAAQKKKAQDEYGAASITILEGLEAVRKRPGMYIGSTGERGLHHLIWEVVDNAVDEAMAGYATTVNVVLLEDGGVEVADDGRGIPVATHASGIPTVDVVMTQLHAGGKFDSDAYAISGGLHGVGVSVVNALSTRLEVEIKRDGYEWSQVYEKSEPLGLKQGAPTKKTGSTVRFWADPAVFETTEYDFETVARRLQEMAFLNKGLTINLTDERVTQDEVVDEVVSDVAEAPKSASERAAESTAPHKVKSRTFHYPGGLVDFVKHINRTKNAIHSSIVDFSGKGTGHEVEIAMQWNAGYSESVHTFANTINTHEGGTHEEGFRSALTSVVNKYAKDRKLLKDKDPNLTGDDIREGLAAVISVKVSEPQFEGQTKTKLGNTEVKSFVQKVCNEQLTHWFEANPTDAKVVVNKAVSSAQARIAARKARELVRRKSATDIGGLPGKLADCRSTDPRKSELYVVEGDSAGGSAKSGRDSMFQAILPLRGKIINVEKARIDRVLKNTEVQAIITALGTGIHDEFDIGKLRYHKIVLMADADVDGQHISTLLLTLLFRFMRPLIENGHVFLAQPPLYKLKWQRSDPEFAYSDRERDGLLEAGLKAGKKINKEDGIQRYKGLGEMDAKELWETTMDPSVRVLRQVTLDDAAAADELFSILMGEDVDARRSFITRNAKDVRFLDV
Chain of DNA gyrase subunit A/DNA gyrase subunit B (P9WG47 whole entry): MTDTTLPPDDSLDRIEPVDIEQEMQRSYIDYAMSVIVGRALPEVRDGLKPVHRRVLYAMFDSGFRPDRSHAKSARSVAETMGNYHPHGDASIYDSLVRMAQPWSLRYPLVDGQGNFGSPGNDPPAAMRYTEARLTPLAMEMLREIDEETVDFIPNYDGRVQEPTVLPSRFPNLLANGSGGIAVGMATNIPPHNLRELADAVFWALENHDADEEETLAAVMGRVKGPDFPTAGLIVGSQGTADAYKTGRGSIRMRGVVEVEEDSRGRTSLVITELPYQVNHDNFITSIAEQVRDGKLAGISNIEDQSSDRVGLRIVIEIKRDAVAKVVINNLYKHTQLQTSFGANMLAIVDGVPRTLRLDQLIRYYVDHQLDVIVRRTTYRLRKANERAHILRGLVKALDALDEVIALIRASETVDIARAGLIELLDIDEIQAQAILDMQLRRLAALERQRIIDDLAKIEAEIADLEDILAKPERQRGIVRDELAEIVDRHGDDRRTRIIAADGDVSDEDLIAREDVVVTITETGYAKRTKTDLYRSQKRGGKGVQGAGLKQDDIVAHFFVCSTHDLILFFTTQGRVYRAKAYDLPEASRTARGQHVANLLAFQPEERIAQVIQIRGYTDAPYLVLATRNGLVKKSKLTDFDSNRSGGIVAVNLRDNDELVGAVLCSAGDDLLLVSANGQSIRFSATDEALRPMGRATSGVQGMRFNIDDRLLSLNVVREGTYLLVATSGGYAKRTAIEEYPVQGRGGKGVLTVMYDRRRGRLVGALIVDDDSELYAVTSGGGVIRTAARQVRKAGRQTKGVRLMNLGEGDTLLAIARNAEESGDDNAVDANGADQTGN
Chain of DNA gyrase subunit B (Staphylococcus aureus) (P0A0K8 2-644 limits assumed): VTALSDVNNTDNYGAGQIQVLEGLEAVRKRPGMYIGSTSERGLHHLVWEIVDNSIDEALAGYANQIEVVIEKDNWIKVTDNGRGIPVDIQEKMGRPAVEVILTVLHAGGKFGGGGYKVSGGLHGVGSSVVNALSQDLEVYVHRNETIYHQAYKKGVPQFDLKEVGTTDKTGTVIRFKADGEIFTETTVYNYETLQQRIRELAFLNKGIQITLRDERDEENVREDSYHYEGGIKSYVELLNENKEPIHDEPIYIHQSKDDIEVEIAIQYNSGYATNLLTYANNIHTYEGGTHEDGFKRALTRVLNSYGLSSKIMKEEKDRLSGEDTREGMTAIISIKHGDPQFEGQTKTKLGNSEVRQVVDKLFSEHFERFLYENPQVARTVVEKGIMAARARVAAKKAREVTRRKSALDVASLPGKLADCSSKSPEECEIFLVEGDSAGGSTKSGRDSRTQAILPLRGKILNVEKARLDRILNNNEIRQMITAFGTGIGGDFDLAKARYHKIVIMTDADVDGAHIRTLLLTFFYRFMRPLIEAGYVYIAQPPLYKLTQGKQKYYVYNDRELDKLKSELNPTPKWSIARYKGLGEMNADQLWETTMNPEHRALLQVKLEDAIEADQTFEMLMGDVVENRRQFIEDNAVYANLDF
Chain of DNA gyrase subunit B (Mycobacterium smegmatis) (P0C559 2-675 limits assumed): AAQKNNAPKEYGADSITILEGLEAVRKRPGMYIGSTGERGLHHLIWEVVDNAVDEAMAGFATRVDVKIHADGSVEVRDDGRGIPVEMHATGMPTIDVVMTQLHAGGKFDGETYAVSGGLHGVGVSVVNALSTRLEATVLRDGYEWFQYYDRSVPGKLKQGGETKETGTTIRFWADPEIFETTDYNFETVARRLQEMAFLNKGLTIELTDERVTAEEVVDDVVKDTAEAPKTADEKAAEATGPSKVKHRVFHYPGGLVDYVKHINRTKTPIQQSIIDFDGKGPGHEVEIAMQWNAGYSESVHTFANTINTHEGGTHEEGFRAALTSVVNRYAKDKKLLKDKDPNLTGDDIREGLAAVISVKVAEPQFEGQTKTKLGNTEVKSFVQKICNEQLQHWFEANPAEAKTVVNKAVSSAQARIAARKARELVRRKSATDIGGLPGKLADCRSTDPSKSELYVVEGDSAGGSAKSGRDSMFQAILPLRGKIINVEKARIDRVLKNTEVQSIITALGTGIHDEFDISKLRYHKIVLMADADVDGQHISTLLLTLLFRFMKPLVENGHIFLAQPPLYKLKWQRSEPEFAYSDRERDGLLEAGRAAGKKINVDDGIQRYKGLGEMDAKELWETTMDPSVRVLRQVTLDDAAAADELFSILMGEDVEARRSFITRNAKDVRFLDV

| SMILES | inhibition at 48 h, 50 µM [7] [%] | IC50 [8] [µM] | IC50 [9] [µM] | MIC [10] [µM] | further results |
| --- | --- | --- | --- | --- | --- |
| COc1ccc2nc(C)cc(N3CCC(NC(=S)Nc4ccc(C)cc4)CC3)c2c1 | 44.9 | 11.1 | 7.94 | 7.28 (≈ 3.06 µg/mL) | Activity [1]: Toxic; Activity [2]: Toxic; Activity [3]: Toxic; Activity [4]: Non-toxic; Activity [5]: Non-toxic; Activity [6]: Non-toxic |
| COc1ccc2nc(C)cc(N3CCC(NC(=S)Nc4ccc(Cl)cc4)CC3)c2c1 | 29.7 | 0.95 | 0.62 | 3.47 (≈ 1.53 µg/mL) | Activity [11]: Non-toxic; Activity [12]: Non-toxic; inhibition [13]: inactive; Activity [14]: Non-toxic; ΔTm [15]: 3.1 °C; inhibition [16]: inactive |
| CC(C)(C)c1ccc(C(O)CCCN2CCC(C(O)(c3ccccc3)c3ccccc3)CC2)cc1 (stereo not drawn) [TERFENADINE] | – | – | – | – | Activity [17]: Toxic; Activity [18]: Toxic; Activity [19]: Toxic |
| COc1ccc2nc(C)cc(N3CCC(NC(=O)Nc4ccc(Cl)cc4)CC3)c2c1 | 42.4 | 16.2 | 14.3 | 17.4 (≈ 7.37 µg/mL) | – |
| Cc1cc(N2CCC(NC(=O)Nc3ccccc3)CC2)c2cc(C(F)(F)F)ccc2n1 | 20.1 | 14.9 | 8.3 | 29.4 (≈ 12.6 µg/mL) | – |
| Cc1cc(N2CCC(NC(=S)Nc3ccccc3)CC2)c2ccccc2n1 | 11.8 | 12.7 | 9.4 | 16.6 (≈ 6.25 µg/mL) | – |
| Cc1cc(N2CCC(NC(=O)Nc3ccc([N+](=O)[O-])cc3)CC2)c2ccccc2n1 | 30.4 | 17 | 10.6 | 15.4 (≈ 6.25 µg/mL) | – |
| Cc1cc(N2CCC(NC(=O)Nc3ccc([N+](=O)[O-])cc3)CC2)c2cc(F)ccc2n1 | 47.9 | 6.83 | 2.14 | 9.52 (≈ 4.03 µg/mL) | – |
| COc1ccc2nc(C)cc(N3CCC(NC(=O)Nc4ccc(F)cc4)CC3)c2c1 | 17.3 | 18.5 | 14.8 | 25.7 (≈ 10.5 µg/mL) | – |
| Cc1ccc(NC(=S)NC2CCN(c3cc(C)nc4ccccc34)CC2)cc1 | 21.6 | 7.26 | 2.66 | 15.7 (≈ 6.12 µg/mL) | – |
| Cc1cc(N2CCC(NC(=S)Nc3ccc(Cl)cc3)CC2)c2cc(F)ccc2n1 | 32.3 | 41.1 | 21.5 | 31.7 (≈ 13.6 µg/mL) | – |
| Cc1cc(N2CCC(NC(=S)Nc3ccc([N+](=O)[O-])cc3)CC2)c2cc(C(F)(F)F)ccc2n1 | 19.8 | 41.8 | 7.54 | 51.1 (≈ 25 µg/mL) | – |
| Cc1cc(N2CCC(NC(=O)Nc3ccc(F)cc3)CC2)c2ccccc2n1 | 49.4 | 34.9 | 19.7 | 34.1 (≈ 12.9 µg/mL) | – |
